In assay [1] the target is T1, human TLR7 (Homo sapiens, UniProt Q9NYK1).
T1 construct: host or cells: HEK293 NF-kB reporter cells
T1 sequence (Q9NYK1 27-1049): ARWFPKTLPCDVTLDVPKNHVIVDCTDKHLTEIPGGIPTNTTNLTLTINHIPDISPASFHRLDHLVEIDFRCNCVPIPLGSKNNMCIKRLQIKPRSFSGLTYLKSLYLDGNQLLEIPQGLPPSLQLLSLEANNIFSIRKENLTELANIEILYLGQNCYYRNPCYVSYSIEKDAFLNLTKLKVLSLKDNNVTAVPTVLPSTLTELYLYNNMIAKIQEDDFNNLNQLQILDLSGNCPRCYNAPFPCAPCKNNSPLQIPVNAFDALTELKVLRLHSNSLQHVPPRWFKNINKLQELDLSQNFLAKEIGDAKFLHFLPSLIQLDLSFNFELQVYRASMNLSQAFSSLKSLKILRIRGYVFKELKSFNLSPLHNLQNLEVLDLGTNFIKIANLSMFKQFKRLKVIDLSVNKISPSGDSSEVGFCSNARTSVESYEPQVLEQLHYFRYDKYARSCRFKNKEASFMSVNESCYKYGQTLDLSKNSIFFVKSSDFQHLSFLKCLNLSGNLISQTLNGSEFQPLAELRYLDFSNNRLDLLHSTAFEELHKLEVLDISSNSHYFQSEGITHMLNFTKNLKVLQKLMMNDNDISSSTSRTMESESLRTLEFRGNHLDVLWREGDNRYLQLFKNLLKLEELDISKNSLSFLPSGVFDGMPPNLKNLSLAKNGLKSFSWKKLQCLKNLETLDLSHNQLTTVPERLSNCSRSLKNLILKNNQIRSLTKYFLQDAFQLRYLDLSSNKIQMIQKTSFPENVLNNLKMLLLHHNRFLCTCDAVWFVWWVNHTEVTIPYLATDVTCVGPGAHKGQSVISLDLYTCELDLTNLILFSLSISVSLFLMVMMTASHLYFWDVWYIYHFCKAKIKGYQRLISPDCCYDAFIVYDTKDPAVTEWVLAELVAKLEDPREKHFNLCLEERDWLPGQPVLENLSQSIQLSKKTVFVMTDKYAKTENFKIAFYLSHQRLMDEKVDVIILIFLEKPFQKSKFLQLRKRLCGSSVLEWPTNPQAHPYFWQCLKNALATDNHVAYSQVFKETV
Nature of the assay: HEK Reporter Assay, HEK293 NFKB reporter cells expressing human TLR7. As to conditions: read-out: HEK293 hTLR7 EC50. The assay is classed as cell-based. As to the method: (§1) Each compound was synthesized, purified, and characterized by mass spectrometry and shown to have the mass indicated. Additional experimental procedures are found in the Examples. Activity against Human Embryonic Kidney (HEK) 293 NFKB reporter cells expressing human TLR7 or human TLR8 was measured according to Example 202.
(§2) Human Embryonic Kidney (HEK293) reporter cells expressing human TLR7 or human TLR8 (InvivoGen, San Diego Calif.), were used with vendor protocols for cellular propagation and experimentation. Briefly, cells were grown to 80-85% confluence at 5% CO2 in DMEM supplemented with 10% FBS, ZEOCIN™, and Blasticidin. Cells were then seeded in 96-well flat plates at 4×10^4 cells/well with substrate containing HEK detection medium and immunostimulatory molecules.
Background: In a reporter assay the amount or activity of a reporter protein is the signal.

In assay [2] the target is T2, human TLR8 (Homo sapiens, UniProt Q9NR97).
T2 construct: host or cells: HEK293 NF-kB reporter cells
T2 sequence (Q9NR97 27-1041): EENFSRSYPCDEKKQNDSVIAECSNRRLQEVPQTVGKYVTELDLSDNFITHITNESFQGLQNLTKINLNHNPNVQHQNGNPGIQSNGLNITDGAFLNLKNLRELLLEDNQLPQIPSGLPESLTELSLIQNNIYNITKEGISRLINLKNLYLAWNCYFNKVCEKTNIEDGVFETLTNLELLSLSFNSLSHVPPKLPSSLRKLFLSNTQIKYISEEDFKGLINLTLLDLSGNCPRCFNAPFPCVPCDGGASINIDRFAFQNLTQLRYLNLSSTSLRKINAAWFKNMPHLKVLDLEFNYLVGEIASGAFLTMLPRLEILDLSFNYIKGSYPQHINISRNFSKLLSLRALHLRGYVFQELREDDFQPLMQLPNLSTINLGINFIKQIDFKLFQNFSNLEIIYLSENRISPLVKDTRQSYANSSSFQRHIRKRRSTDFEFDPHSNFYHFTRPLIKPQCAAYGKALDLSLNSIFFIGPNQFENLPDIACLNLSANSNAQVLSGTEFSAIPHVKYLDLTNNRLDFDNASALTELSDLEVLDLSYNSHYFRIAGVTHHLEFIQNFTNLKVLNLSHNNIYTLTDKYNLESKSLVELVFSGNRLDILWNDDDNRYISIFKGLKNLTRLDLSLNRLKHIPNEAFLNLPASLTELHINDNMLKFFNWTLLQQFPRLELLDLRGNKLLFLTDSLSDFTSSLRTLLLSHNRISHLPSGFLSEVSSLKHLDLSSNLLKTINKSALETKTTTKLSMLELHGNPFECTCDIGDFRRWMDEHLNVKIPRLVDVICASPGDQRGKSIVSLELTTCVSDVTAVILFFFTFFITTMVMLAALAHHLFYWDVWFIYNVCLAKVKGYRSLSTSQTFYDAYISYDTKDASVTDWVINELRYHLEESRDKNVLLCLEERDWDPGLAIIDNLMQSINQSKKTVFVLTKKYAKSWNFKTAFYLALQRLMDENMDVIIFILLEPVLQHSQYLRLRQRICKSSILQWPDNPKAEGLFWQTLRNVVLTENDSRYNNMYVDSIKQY
As to the kind of experiment: HEK Reporter Assay, HEK293 NFKB reporter cells expressing human TLR8. The conditions noted are these: read-out: HEK293 hTLR8 EC50. The assay is classed as cell-based. How it is done: as §1, §2

As a reminder, the EC50 is the midpoint of the concentration-response curve. Take `CCCN(OCC)C(=O)C1=Cc2ccc(-c3cnc(N4CCN(C(=O)OC(C)(C)C)CC4)nc3)cc2N=C(N)C1` [HxBz-4, tert-butyl 4-[5-[2-amino-4-[ethoxy (propyl)carbamoyl]-3H-1-benzazepin-8-yl]pyrimidin-2-yl]piperazine-1-carboxylate]: the figures for the EC50 in assay [1] and in assay [2] were 3260 nM and 350 nM, respectively.
For the molecule `CCCN(OCCNC(=O)NCC)C(=O)C1=Cc2ccc(-c3cnc(CN)nc3)cc2N=C(N)C1` [HxBz-28], the values for the EC50 in assay [1] and in assay [2] were 3770 nM and 2930 nM, respectively.
`CCCN(OCCNC(=O)OC1CCC1)C(=O)C1=Cc2ccc(-c3ccc(CN)nc3)cc2N=C(N)C1` [HxBz-47]: the EC50 in assay [1] was 35 nM; in assay [2] it was 12 nM.
For `CCCN(CCCNC(=O)OC1CCC1)C(=O)C1=Cc2ccc(-c3cncc(S(=O)(=O)N4CC(CN)C4)c3)cc2N=C(N)C1` [HxBz-32, cyclobutyl N-[3-[[2-amino-8-[5-[3-(aminomethyl)azetidin-1-yl]sulfonyl-3-pyridyl]-3H-1-benzazepine-4-carbonyl]-propyl-amino]propyl]carbamate], the values for the EC50 in assay [1] and in assay [2] were 1280 nM and 1520 nM, respectively.
`CCCN(OCC)C(=O)C1=Cc2ccc(N3CCNCC3)cc2N=C(N)C1` [HxBz-18]: the EC50 in assay [1] turned out to be 6310 nM; in assay [2], 281 nM.
In the case of `CCCN(OCCNC(=O)OC(C)C)C(=O)C1=Cc2ccc(-c3cnc(CN)nc3)cc2N=C(N)C1` [HxBz-27, isopropyl N-[2-[[2-amino-8-[2-(aminomethyl)pyrimidin-5-yl]-3H-1-benzazepine-4-carbonyl]-propyl-amino]oxyethyl]carbamate], the figures for the concentration for a half-maximal effect (EC50) in assay [1] and in assay [2] were 26 nM and 9 nM, respectively.
`CCCN(OCC)C(=O)C1=Cc2ccc(-c3cnc(N4CCNCC4)nc3)cc2N=C(N)C1` [HxBz-3, 2-amino-N-ethoxy-8-(2-piperazin-1-ylpyrimidin-5-yl)-N-propyl-3H-1-benzazepine-4-carboxamide]: the EC50 turned out to be 562 nM in assay [1] and 43 nM in assay [2].
With `CCCN(OCC(C)C)C(=O)C1=Cc2ccc(-c3cnc(CN)nc3)cc2N=C(N)C1` [HxBz-31], the concentration for a half-maximal effect (EC50) in assay [1] was determined as 763 nM; in assay [2], 358 nM.
The like results for `CCCN(OCCO)C(=O)C1=Cc2ccc(-c3cnc(CN)nc3)cc2N=C(N)C1` [HxBz-22, 2-amino-8-[2-(aminomethyl)pyrimidin-5-yl]-N-(2-hydroxyethoxy)-N-propyl-3H-1-benzazepine-4-carboxamide] were, in that order, 3920 nM and 1150 nM.
As for `CCCN(OCC)C(=O)C1=Cc2ccc(-c3ncc(CN)cn3)cc2N=C(N)C1` [HxBz-10], the EC50 in assay [2] amounted to 814 nM.
With `CCCN(OCC)C(=O)C1=Cc2ccc(-c3ccc(C(=O)OC)nn3)cc2N=C(N)C1` [HxBz-6], the EC50 in assay [1] stood at 2660 nM; in assay [2], 339 nM.
`CCCN(OCC1COC(=O)N1)C(=O)C1=Cc2ccc(-c3cnc(CN)nc3)cc2N=C(N)C1` (centres unmarked) [HxBz-46]: the EC50 in assay [2] is 3580 nM.
As to `CCCN(OCC)C(=O)C1=Cc2ccc(-c3cnc(C#N)nc3)cc2N=C(N)C1` [HxBz-1], the EC50 in assay [1] was determined as 2540 nM; in assay [2], 163 nM.
For `CCCN(OCC)C(=O)C1=Cc2ccc(-c3cncc(S(=O)(=O)N4CC(CN)C4)c3)cc2N=C(N)C1` [HxBz-7, 2-amino-8-[5-[3-(aminomethyl)azetidin-1-yl]sulfonyl-3-pyridyl]-N-ethoxy-N-propyl-3H-1-benzazepine-4-carboxamide] the same measures were 3630 nM and 335 nM.
The like results for `CCCN(OCCNC(=O)OC1CCC1)C(=O)C1=Cc2ccc(-c3cncc(S(=O)(=O)N4CC(CN)C4)c3)cc2N=C(N)C1` [HxBz-34] were, in that order, 322 nM and 79 nM.
Consider `CCCN(OC(C)C)C(=O)C1=Cc2ccc(-c3cnc(CN)nc3)cc2N=C(N)C1` [HxBz-30], for which the values for the EC50 in assay [1] and in assay [2] were 393 nM and 40 nM, respectively.
`CCCN(CC1CNC(=O)O1)C(=O)C1=Cc2ccc(-c3cnc(CN)nc3)cc2N=C(N)C1` (centres unmarked) [HxBz-25]: the EC50 in assay [2] was 3160 nM.
Turning to `CCCN(OCC)C(=O)C1=Cc2ccc(-c3cnc(C(=O)N4CCC[C@H]4C(=O)OC)nc3)cc2N=C(N)C1` [HxBz-12], the EC50 in assay [1] worked out at 159 nM; in assay [2], 6 nM.
Turning to `CCCN(CCCOC(=O)NC1CCC1)C(=O)C1=Cc2ccc(-c3cnc(CN)nc3)cc2N=C(N)C1` [HxBz-45, 3-[[2-amino-8-[2-(aminomethyl)pyrimidin-5-yl]-3H-1-benzazepine-4-carbonyl]-propyl-amino]propyl N-cyclobutylcarbamate], the EC50 worked out at 825 nM in assay [1] and 325 nM in assay [2].
On to `CCCN(OCCNC(=O)NC1CCC1)C(=O)C1=Cc2ccc(-c3cnc(CN)nc3)cc2N=C(N)C1` [HxBz-16, 2-amino-8-[2-(aminomethyl)pyrimidin-5-yl]-N-[2-(cyclobutylcarbamoylamino)ethoxy]-N-propyl-3H-1-benzazepine-4-carboxamide], for which the EC50 in assay [1] worked out at 4600 nM; in assay [2], 399 nM.
`CCCN(OCCO)C(=O)C1=Cc2ccc(-c3cncc(S(=O)(=O)N4CC(CN)C4)c3)cc2N=C(N)C1` [HxBz-43]: the EC50 in assay [2] worked out at 6160 nM.
As for `CCCN(CCCNC(=O)OC(C)C)C(=O)C1=Cc2ccc(-c3cnc(CN)nc3)cc2N=C(N)C1` [HxBz-29], the EC50 in assay [1] was 134 nM; in assay [2], 296 nM.
As to `CCCN(OCC)C(=O)C1=Cc2ccc(-c3cccnn3)cc2N=C(N)C1` [HxBz-2], the results for the concentration giving a half-maximal response (EC50) in assay [1] and in assay [2] were 2240 nM and 276 nM, respectively.
The like results for `CCCN(CCCNC(=O)OC1CCC1)C(=O)C1=Cc2ccc(-c3cnc(CN)nc3)cc2N=C(N)C1` [HxBz-13, cyclobutyl N-[3-[[2-amino-8-[2-(aminomethyl)pyrimidin-5-yl]-3H-1-benzazepine-4-carbonyl]-propyl-amino]propyl]carbamate] were, in that order, 242 nM and 274 nM.
As to `CCCN(CCCNC(=O)OC(C)C)C(=O)C1=Cc2ccc(-c3cncc(S(=O)(=O)N4CC(CN)C4)c3)cc2N=C(N)C1` [HxBz-33], the EC50 in assay [1] amounted to 7630 nM; in assay [2], 2880 nM.
On to `CCCN(OCC)C(=O)C1=Cc2ccc(-c3cnn(S(=O)(=O)N4CC(CN)C4)c3)cc2N=C(N)C1` [HxBz-9], for which the concentration giving a half-maximal response (EC50) in assay [1] is 8630 nM; in assay [2], 397 nM.
Turning to `CCCN(C(=O)C1=Cc2ccc(-c3cnc(CN)nc3)cc2N=C(N)C1)[C@H]1C[C@H](NC(=O)OC2CCC2)C1` [HxBz-44], the EC50 in assay [2] worked out at 6350 nM.
Consider `CCCN(OCC)C(=O)C1=Cc2ccc(-c3cnnc(CN)c3)cc2N=C(N)C1` [HxBz-48], for which the EC50 in assay [2] was 2160 nM.

Source of the values: US20220195066A1, “ANTI-CEA IMMUNOCONJUGATES, AND USES THEREOF” (BOLT BIOTHERAPEUTICS, INC., priority 2020, published 2022).
